From patent US8846643B2, “Phosphonates with reduced toxicity for treatment of viral infections” (The Regents of the University of California, priority 2010, dated 2014)
Like-named read-outs stand apart in the source and are kept apart here.

Assays:
[1] = test system: HCV genotype 1b replicon (BM4-5); assay: anti-HCV activity in genotype 1b replicon (BM4-5); format: cell-based, hepatitis C virus; conditions: for EC50: Hepatitis C virus, BM4-5, read-out: EC50 (μM) BM4-5(1b); for anti-HCV activity (in words): HCV replication in vitro
[2] = test system: HCV genotype 2a replicon (JFH-1); assay: anti-HCV activity in genotype 2a replicon (JFH-1); format: cell-based, hepatitis C virus; conditions: for EC50: Hepatitis C virus, read-out: EC50 (μM) JFH-1 (2a)
HIV-1 [3] = conditions: for anti-HIV activity (in words): HIV-1 infected MT-2 cells
MT-2 cells = assay: cytotoxicity in MT-2 cells; conditions: MT-2 cells
HIV-1 [4] = assay: microbe, parasite or virus in culture
Huh 7.5 cells = assay: cytotoxicity (CC50) in HCV replicon cells / Huh 7.5 liver cells; conditions: cytotoxicity in replicon cells
[5] = biological target: HIV-1 reverse transcriptase (Human immunodeficiency virus type 1 group M subtype B, UniProt P04585); assay: HIV reverse transcriptase assay with primer-template pairs; format: biochemical; conditions: HIV-1 reverse transcriptase 50 nM, 37° C., 5 min
Experimental: (S)-MPMPA diphosphate was prepared as described in Example 56. Radiolabeled [γ-^32P]ATP and cordycepin triphosphate ([α-^32P]3′-deoxyATP) was purchased from PerkinElmer, and unlabeled deoxynucleoside triphosphates (dNTPs) were from Fermentas. RNA oligonucleotides were purchased from Sigma.
Oligonucleotide primer-template pairs were used as substrates for reverse transcriptase assays. Reverse transcriptase assays utilized RNA oligonucleotide templates. The primers were first end-labeled by using [γ-^32P]ATP and T4 polynucleotide kinase prior to annealing to the template strand. Various combinations of dNTPs and (S)-MPMPApp were added. […] After incubation of controls and (S)-MPMPA at 37° C. for 5 min, reaction mixtures were stopped by the addition of gel loading buffer [80% (v/v) formamide, 10 mM EDTA (pH 8.0), 1 mg/ml xylene cyanol FF, 1 mg/ml bromophenol blue]. Reaction products were resolved on 10% polyacrylamide gels and analyzed by phosphorimager analysis as previously described (Magee et al., 2005) using a Typhoon 9400 phosphorimager.).

HIV-1NL43 = assay: HIV-1 replication in human peripheral blood mononuclear cells; format: cell-based; conditions: for activity against HIV-1 in human PBMCs (in words): HIV-1 infected human PBMCs; for EC50: Human immunodeficiency virus 1, PBMC, HIV-1NL43 in human PBMCs
Vaccinia [6] = conditions: reported previously; read-out: EC50 for vaccinia inhibition; cited from earlier work
Cowpox [7] = conditions: data from Beadle et al.; cited from earlier work
HCMV [8] = conditions: data from Beadle et al.; cited from earlier work
in vitro = conditions: human, HFF fibroblasts
[9] = cytotoxicity in MT-2 cells; conditions: human
[10] = cytotoxicity (CC50) in HCV replicon cells / Huh 7.5 liver cells; conditions: human
Vaccinia [11] = assay: microbe, parasite or virus in culture; format: cell-based; conditions: Orthopoxvirus vaccinia
Cowpox [12] = assay: organism not typed; format: cell-based; conditions: read-out: EC50 (μM) Cowpox
HCMV [13] = assay: antiviral activity against HCMV, plaque reduction assay in HFF cells; format: cell-based, human cytomegalovirus; conditions: Human betaherpesvirus 5, HFF, read-out: EC50 (μM) HCMV
HSV-1 = assay: antiviral activity against HSV-1, plaque reduction assay in HFF cells; format: cell-based, herpes simplex virus, type 1; conditions: Human alphaherpesvirus 1, HFF, read-out: EC50 (μM) HSV-1
[14] = cytotoxicity in human PBMCs
[15] = antiviral activity and cytotoxicity of unmodified MPMPA (system not stated)
[16] = Human immunodeficiency virus 1, MT2, MT-2 cells infected with HIV-1
[17] = Human immunodeficiency virus 1, MT2

SMILES	EC50 [1]	EC50 [2]	anti-HIV activity (in words) (HIV-1 [3])	CC50 (MT-2 cells)	CC50 (Huh 7.5 cells)	activity against HIV-1 in human PBMCs (in words) (HIV-1NL43)	EC50 (HIV-1 [4]; [17])	CC50 [14]	other results
CCCCCCCCCCCCCCCCOCCCOP(=O)(O)COC(COCC)Cn1cnc2c(=O)[nH]c(N)nc21 (racemic) [Cmpd 37, Hexadecyloxypropyl (R,S)-9-[3-ethoxy-2-phosphonomethoxy)propyl]guanine]	25.5 ± 10.4 µM	13.2 ± 3.45 µM	large loss of anti-HIV activity	14.9 ± 6.7 µM	> 150 µM	–	–	–	Selectivity Index BM4-5 (1b) ([1]; genotype 1b replicon): >5.88; Selectivity Index JFH-1 (2a) ([2]; genotype 2a replicon): >11.4; EC50 (HIV-1 [4]; [16]): > 10 µM
COC[C@H](Cn1cnc2c(N)ncnc21)OCP(=O)(O)OP(=O)(O)OP(=O)(O)O [(S)-MPMPA diphosphate]	–	–	–	–	–	–	–	–	inhibition of HIV reverse transcriptase activity (in words) [5]: inhibited HIV reverse transcriptase activity by chain termination
CCCCCCCCCCCCCCCCCCOCCOP(=O)(O)CO[C@H](CO)Cn1cnc2c(N)ncnc21 [Cmpd 1, octadecyloxyethyl 9-(S)-[3-hydroxy-2-(phosphonomethoxy)propyl]adenine, reference compound]	1.55 ± 0.5 µM	1.65 ± 0.33 µM	–	0.033 µM	–	highly active and selective	0.0001 µM	–	EC50 (Vaccinia [6]): 0.02 µM; EC50 (Cowpox [7]): 0.05 ± 0.04 µM; EC50 (HCMV [8]): 0.003 ± 0.001 µM; CC50 (in vitro): 0.58 ± 0.3 µM; CC50 [9]: 0.03 ± 0.02 µM; CC50 [10]: 35.6 µM
CCCCCCCCCCCCCCCCCCOCCOP(=O)(O)CO[C@H](COC)Cn1cnc2c(N)ncnc21 [Cmpd 15, Octadecyloxyethyl (S)-9-[(3-methoxy-2-phosphonomethoxy)propyl]adenine]	1.43 ± 0.38 µM	2.38 ± 1.09 µM	potent inhibitory activity	–	> 150 µM	–	0.03 µM	> 10 µM	anti-HCV activity (in words) [1]: potent inhibitory activity; EC50 (Vaccinia [11]; read-out: EC50 (μM) Vaccinia): 18.3 ± 2.4 µM; EC50 (Vaccinia [11]; read-out: EC50 for vaccinia inhibition): 18.3 µM; EC50 (Cowpox [12]): > 20 µM; EC50 (HCMV [13]): 1.55 ± 0.4 µM; EC50 (HSV-1): 45.7 ± 10.1 µM; EC50 (HIV-1NL43): ~0.005 µM; CC50 (in vitro): 23.8 ± 2.6 µM; CC50 ([10]; Huh 7.5 liver cells): > 150 µM
CCCCCCCCCCCCCCCCOCCCOP(=O)(O)CO[C@H](COC)Cn1cnc2c(N)ncnc21 [Cmpd 17]	2.36 µM	4.64 µM	less active	32 ± 11 µM	> 150 µM	active and selective	0.2 ± 0.26 µM	> 10 µM	EC50 (HIV-1NL43): 0.2 µM
CCCCCCCCCCCCCCCCOCCCOP(=O)(O)CO[C@H](COC)Cn1cnc2c(N)nc(N)nc21 [Cmpd 25]	21.3 ± 3.1 µM	23.6 ± 2.7 µM	less active	22.7 ± 6.8 µM	91.5 ± 17.8 µM	–	–	–	EC50 (HIV-1 [4]; [16]): 4.6 ± 1.8 µM
CCCCCCCCCCCCCCCCOCCCOP(=O)(O)CO[C@H](COC)Cn1cnc2c(=O)[nH]c(N)nc21 [Cmpd 36]	22 ± 4.97 µM	24.8 ± 7 µM	less active	29.3 ± 3.1 µM	> 150 µM	–	2.03 ± 0.95 µM	> 100 µM	activity against HIV-1 in human PBMCs (in words) (HIV-1NL43; listed as HDP-(S)-MPMPG): active and selective; activity against HIV-1 in human PBMCs (in words) (HIV-1NL43; listed as hexadecyloxypropyl-(S)-MPMPG): submicromolar activity
CCCCCCCCCCCCCCCCCCOCCOP(=O)(O)CO[C@H](COC)Cn1ccc(N)nc1=O [Cmpd 40, Octadecyloxyethyl (S)-1-[(3-methoxy-2-phosphonomethoxy)propyl]cytosine]	> 150 µM	> 150 µM	–	60.7 ± 16 µM	> 150 µM	antiviral activity	12.7 µM	–	anti-HCV activity (in words) [1]: inactive; Selectivity Index (HIV-1 [3]; MT-2 cells, HIV-1): 4.8
COC[C@H](Cn1cnc2c(N)ncnc21)OCP(=O)(O)O [MPMPA, 9-(S)-[3-methoxy-2-(phosphonomethoxy)propyl]adenine]	–	–	–	–	–	–	–	–	CC50 ([15]; cells not given): 40 µM; EC50 ([15]; virus and cells not stated): 20 µM
